Measured values published in US9000020B2, “Linked dibenzimidazole antivirals” (Enanta Pharmaceuticals, Inc., priority 2009, dated 2015).

Test system: HCV 1b genotype replicon
Assay: HCV Replicon Assay - qRT-PCR (HCV RNA detection)
Format: cell-based
Conditions: Hepatitis C virus, from the qRT-PCR or luciferase assay (not specified which), read-out: Genotype-1b replicon EC50 Range
Text: HCV replicon cell lines (kindly provided by R. Bartenschlager) isolated from colonies as described by Lohman et. al. (Lohman et al. (1999) Science 285: 110-113, expressly incorporated by reference in its entirety) and used for all experiments. The HCV replicon has the nucleic acid sequence set forth in EMBL Accession No.: AJ242651, the coding sequence of which is from nucleotides 1801 to 8406.
The coding sequence of the published HCV replicon was synthesized and subsequently assembled in a modified plasmid pBR322 (Promega, Madison, Wis.) using standard molecular biology techniques. One replicon cell line (“SGR 11-7”) stably expresses HCV replicon RNA which consists of (i) the HCV 5′UTR fused to the first 12 amino acids of the capsid protein, (ii) the neomycin phosphotransferase gene (neo), (iii) the IRES from encephalomyocarditis virus (EMCV), and (iv) HCV NS2 to NS5B genes and the HCV 3′UTR. Another replicon cell line (“Huh-luc/neo-ET”) described by Vrolijk et. al. (Vrolijk et. al. (2003) Journal of Virological Methods 110:201-209, expressly incorporated by reference in its entirety) stably expresses HCV replicon RNA which consists of (i) the HCV 5′UTR fused to the first 12 amino acids of the capsid protein, (ii) the firefly luciferase reporter gene, (iii) the ubiquitin gene, (iv) the neomycin phosphotransferase gene (neo), (v) the IRES from encephalomyocarditis virus (EMCV), and (vi) HCV NS3 to NS5B genes that harbor cell culture adaptive mutations (E1202G, T1280I, K1846T) and the HCV 3′UTR.
These cell lines were maintained at 37° C., 5% CO2, 100% relative humidity in DMEM (Cat #11965-084, Invitrogen), with 10% fetal calf serum (“FCS”, Invitrogen), 1% non-essential amino acids (Invitrogen), 1% of Glutamax (Invitrogen), 1% of 100× penicillin/streptomycin (Cat #15140-122, Invitrogen) and Geneticin (Cat #10131-027, Invitrogen) at 0.75 mg/ml or 0.5 mg/ml for 11-7 and Huh-luc/neo-ET cells, respectively.
EC50 values of single agent compounds and combinations were determined by HCV RNA detection using quantitative RT-PCR, according to the manufacturer's instructions, with a TaqMan® One-Step RT-PCR Master Mix Reagents Kit (Cat #AB 4309169, Applied Biosystems) on an ABI Model 7500 thermocycler. The TaqMan primers used for detecting and quantifying were obtained from Integrated DNA Technologies. HCV RNA was normalized to GAPDH RNA levels in drug-treated cells, which was detected and quantified using the Human GAPDH Endogenous Control Mix (Applied Biosystems, AB 4310884E). Total cellular RNA was purified from 96-well plates using the RNAqueous 96 kit (Ambion, Cat #AM1812). Chemical agent cytotoxicity was evaluated using an MTS assay according to the manufacturer's directions (Promega).
The compounds of the present invention can be effective against the HCV 1b genotype. It should also be understood that the compounds of the present invention can inhibit multiple genotypes of HCV. In one embodiment, compound of the present invention are active against the 1a, 1b, 2a, 2b, 3a, 4a, and 5a genotypes. […] EC50 ranges against HCV 1b are as follows: A>10 nM; B 1-10 nM; C<1 nM.

Question: With `CN(C)[C@@H](C(=O)N1CCC[C@H]1c1nc2cc(-c3ccc(-c4ccc5[nH]c([C@@H]6CCCN6C(=O)[C@@H](c6ccccc6)N(C)C)nc5c4)cc3)ccc2[nH]1)c1ccccc1` [Compound 2] as the molecule, how does the EC50 read?
Answer: < 1 nM

Question: With `COC(=O)N[C@@H](C(=O)N1CCC[C@H]1c1nc2cc(-c3ccc(-c4ccc5[nH]c([C@@H]6CCCN6C(=O)[C@H](NC(=O)OC)c6ccccc6)nc5c4)cc3)ccc2[nH]1)c1ccccc1` [Compound 3] as the molecule, how does the EC50 read?
Answer: < 1 nM

Question: For `CO[C@@H](C(=O)N1CCC[C@H]1c1nc2cc(-c3ccc(-c4ccc5[nH]c([C@@H]6CCCN6C(=O)[C@H](OC)c6ccccc6)nc5c4)cc3)ccc2[nH]1)c1ccccc1` [Compound 20], which EC50 is on record?
Answer: < 1 nM

Question: With `O=C([C@@H]1CCCO1)N1CCC[C@H]1c1nc2cc(-c3ccc(-c4ccc5[nH]c([C@@H]6CCCN6C(=O)[C@@H]6CCCO6)nc5c4)cc3)ccc2[nH]1` [Compound 25] as the molecule, how does the EC50 read?
Answer: > 10 nM

Question: `O=C([C@H]1CCCO1)N1CCC[C@H]1c1nc2cc(-c3ccc(-c4ccc5[nH]c([C@@H]6CCCN6C(=O)[C@H]6CCCO6)nc5c4)cc3)ccc2[nH]1` [Compound 26] was tested. Which EC50 did it give?
Answer: > 10 nM

Question: Which EC50 does the source give for `COC(=O)N[C@H]1CC[C@H](C(=O)N2CCC[C@H]2c2nc3cc(-c4ccc(-c5ccc6[nH]c([C@@H]7CCCN7C(=O)[C@H]7CC[C@H](NC(=O)OC)CC7)nc6c5)cc4)ccc3[nH]2)CC1` [Compound 42] here?
Answer: > 10 nM

Question: How did the EC50 turn out when `O=C(c1ccncc1)N1CCC[C@H]1c1nc2cc(-c3ccc(-c4ccc5[nH]c([C@@H]6CCCN6C(=O)c6ccncc6)nc5c4)cc3)ccc2[nH]1` [Compound 52] was run?
Answer: > 10 nM

Question: Which EC50 does the source give for `O=C(c1ccccn1)N1CCC[C@H]1c1nc2cc(-c3ccc(-c4ccc5[nH]c([C@@H]6CCCN6C(=O)c6ccccn6)nc5c4)cc3)ccc2[nH]1` [Compound 54] here?
Answer: > 10 nM

Question: For `COC(=O)N[C@@H](C)C(=O)N1CCC[C@H]1c1nc2cc(-c3ccc(-c4ccc5[nH]c([C@@H]6CCCN6C(=O)[C@H](C)NC(=O)OC)nc5c4)cc3)ccc2[nH]1` [Compound 62], which EC50 is on record?
Answer: < 1 nM

Question: With `CC[C@H](NC(=O)OC)C(=O)N1CCC[C@H]1c1nc2cc(-c3ccc(-c4ccc5[nH]c([C@@H]6CCCN6C(=O)[C@H](CC)NC(=O)OC)nc5c4)cc3)ccc2[nH]1` [Compound 67] as the molecule, how does the EC50 read?
Answer: < 1 nM

Question: `COC(=O)N[C@H](C(=O)N1CCC[C@H]1c1nc2cc(-c3ccc(-c4ccc5[nH]c([C@@H]6CCCN6C(=O)[C@@H](NC(=O)OC)[C@@H](C)O)nc5c4)cc3)ccc2[nH]1)[C@@H](C)O` [Compound 70] was tested. Which EC50 did it give?
Answer: < 1 nM

Question: `COC(=O)N[C@H](C(=O)N1CCC[C@H]1c1nc2cc(-c3ccc(-c4ccc5[nH]c([C@@H]6CCCN6C(=O)[C@@H](NC(=O)OC)[C@@H](C)OC)nc5c4)cc3)ccc2[nH]1)[C@@H](C)OC` [Compound 72] was tested. Which EC50 did it give?
Answer: < 1 nM

Question: `COC(=O)N[C@H](C(=O)N1CCC[C@H]1c1nc2cc(-c3ccc(-c4ccc5[nH]c([C@@H]6CCCN6C(=O)[C@@H](NC(=O)OC)C6CC6)nc5c4)cc3)ccc2[nH]1)C1CC1` [Compound 78] was tested. Which EC50 did it give?
Answer: < 1 nM

Question: For `COC(=O)N[C@H](C(=O)N1CCC[C@H]1c1nc2cc(-c3ccc(-c4ccc5[nH]c([C@@H]6CCCN6C(=O)[C@@H](NC(=O)OC)C(C)C)nc5c4)cc3)ccc2[nH]1)C(C)C` [Compound 83], which EC50 is on record?
Answer: < 1 nM

Question: For `COC(=O)N[C@@H](Cn1cccn1)C(=O)N1CCC[C@H]1c1nc2cc(-c3ccc(-c4ccc5[nH]c([C@@H]6CCCN6C(=O)[C@H](Cn6cccn6)NC(=O)OC)nc5c4)cc3)ccc2[nH]1` [Compound 114], which EC50 is on record?
Answer: < 1 nM

Question: `COC(=O)N[C@@H](C(=O)N1CCC[C@H]1c1nc2cc(N3CCN(c4ccc5[nH]c([C@@H]6CCCN6C(=O)[C@H](NC(=O)OC)c6ccccc6)nc5c4)CC3)ccc2[nH]1)c1ccccc1` [Compound 354] was tested. Which EC50 did it give?
Answer: < 1 nM

Question: Which EC50 does the source give for `COC(=O)N[C@@H](C(=O)N1CCC[C@H]1c1nc2cc(N3CC(=O)N(c4ccc5[nH]c([C@@H]6CCCN6C(=O)[C@H](NC(=O)OC)c6ccccc6)nc5c4)CC3=O)ccc2[nH]1)c1ccccc1` [Compound 357] here?
Answer: > 10 nM

Question: With `CC(C)[C@H](NC(=O)OCc1ccccc1)C(=O)N1CCC[C@H]1c1nc2cc(-c3ccc(-c4ccc5[nH]c([C@@H]6CCCN6C(=O)[C@@H](NC(=O)OCc6ccccc6)C(C)C)nc5c4)cc3)ccc2[nH]1` [Compound 361] as the molecule, how does the EC50 read?
Answer: > 10 nM

Question: Which EC50 does the source give for `COC(=O)N[C@H](C(=O)N1CCC[C@H]1c1nc2cc(-c3ccc(-c4ccc5[nH]c([C@@H]6CCCN6C(=O)[C@@H](NC(=O)OC)C(C)(C)C)nc5c4)cc3)ccc2[nH]1)C(C)(C)C` [Compound 372] here?
Answer: < 1 nM
